Data: patent US20250282799A1, “SUBSTITUTED PYRIDO[4,3-d]PYRIMIDINES AS KRAS MODULATORS” (Alterome Therapeutics, Inc., priority 2023, published 2025)

System: KRAS G12V dependent lung adenocarcinoma cell line, NCI-H441
Assay: Cellular pERK (Thr202/Tyr204) FRET/HTRF assay
Assay type: cell-based
Settings: Homo sapiens, NCI-H441, cellular pERK (Thr202/Tyr204) HTRF, NCI-H441 cells
Method in brief: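 IC50 reflects inhibition of ERK1/2 Thr202/Tyr204 phosphorylation, quantified by HTRF after a 1 hr treatment of KRAS G12V-driven NCI-H441 cells. DMSO served as negative control.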

IC50 [nM] | Structure (SMILES)
< 50 | [2H]C([2H])(Oc1nc(N2CCC(=O)C[C@H]3[C@H](F)[C@H]32)c2cnc(-c3cc(N)cc4cc(F)c(F)c(C#C)c34)c(F)c2n1)[C@@]12CCCN1C[C@H](F)C2 [Example 195, (1S,7R,8S)-2-(7-(3-amino-8-ethynyl-6,7-difluoronaphthalen-1-yl)-8-fluoro-2-(((2R,7aS)-2-fluorotetrahydro-1H-pyrrolizin-7a(5H)-yl)methoxy-d2)pyrido[4,3-d]pyrimidin-4-yl)-8-fluoro-2-azabicyclo[5.1.0]octan-5-one]
500 to 10000 | C#Cc1c(F)ccc2cc(O)cc(-c3ncc4c(N5CCCO[C@H]6C[C@H]65)nc(OC[C@@]5(C)CCCN5)nc4c3F)c12 [Example 281, 4-(4-((1S,7R)-2-oxa-6-azabicyclo[5.1.0]octan-6-yl)-8-fluoro-2-(((R)-2-methylpyrrolidin-2-yl)methoxy)pyrido[4,3-d]pyrimidin-7-yl)-5-ethynyl-6-fluoronaphthalen-2-ol]
500 to 10000 | C#Cc1c(F)ccc2cc(N)cc(-c3ncc4c(N5CCOC[C@@H]6[C@@H](Cl)[C@@H]65)nc(OC[C@]56CC(=C)CN5CCC65CC5)nc4c3C)c12 [Example 347, 4-(4-((1R,7R,8R)-8-chloro-5-oxa-2-azabicyclo[5.1.0]octan-2-yl)-8-methyl-2-(((R)-6′-methylenetetrahydrospiro[cyclopropane-1,1′-pyrrolizin]-7a′(5′H)-yl)methoxy)pyrido[4,3-d]pyrimidin-7-yl)-5-ethynyl-6-fluoronaphthalen-2-amine]
< 50 | [2H]C([2H])([2H])Oc1c(F)cc(F)c2cc(N)cc(-c3ncc4c(N5CCC=C[C@H]6[C@H](F)[C@H]65)nc(OC([2H])([2H])[C@@]56CCCN5C[C@H](F)C6)nc4c3F)c12 [Example 149, 6,8-difluoro-4-(8-fluoro-4-((1S,7R,8S)-8-fluoro-2-azabicyclo[5.1.0]oct-5-en-2-yl)-2-(((2R,7aS)-2-fluorotetrahydro-1H-pyrrolizin-7a(5H)-yl)methoxy-d2)pyrido[4,3-d]pyrimidin-7-yl)-5-(methoxy-d3)naphthalen-2-amine]
< 50 | [2H]C([2H])(Oc1nc(N2CCOC[C@@H]3[C@H]2[C@@]3([2H])F)c2cnc(-c3cccc4ccc(F)c(C#C)c34)c(F)c2n1)[C@@]12CCCN1C[C@H](F)C2 [Example 118, (1S,7S,8S)-2-(7-(8-ethynyl-7-fluoronaphthalen-1-yl)-8-fluoro-2-(((2R,7aS)-2-fluorotetrahydro-1H-pyrrolizin-7a(5H)-yl)methoxy-d2)pyrido[4,3-d]pyrimidin-4-yl)-8-fluoro-5-oxa-2-azabicyclo[5.1.0]octane-8-d]
< 50 | [2H]C([2H])(Oc1nc(N2CCOC[C@H]3[C@H](F)[C@H]32)c2cnc(-c3cc(N)cc4ccc(F)c(C#C)c34)c(F)c2n1)[C@@]12CCCN1C[C@@H](C#N)C2 [Example 286, (2S,7aS)-7a-(((7-(3-amino-8-ethynyl-7-fluoronaphthalen-1-yl)-8-fluoro-4-((1S,7S,8S)-8-fluoro-5-oxa-2-azabicyclo[5.1.0]octan-2-yl)pyrido[4,3-d]pyrimidin-2-yl)oxy)methyl-d2)hexahydro-1H-pyrrolizine-2-carbonitrile]
50 to 500 | [2H]C([2H])(Oc1nc(N2CC[C@@H](C#N)C[C@@H]3[C@H](F)[C@@H]32)c2cnc(-c3cc(N)cc4ccc(F)c(C#C)c34)c(F)c2n1)[C@@]12CCCN1C[C@H](F)C2 [Example 311, (1R,5S,7S,8S)-2-(7-(3-amino-8-ethynyl-7-fluoronaphthalen-1-yl)-8-fluoro-2-(((2R,7aS)-2-fluorotetrahydro-1H-pyrrolizin-7a(5H)-yl)methoxy-d2)pyrido[4,3-d]pyrimidin-4-yl)-8-fluoro-2-azabicyclo[5.1.0]octane-5-carbonitrile]
50 to 500 | C#Cc1c(Cl)ccc2cc(N)cc(-c3ncc4c(N5CCOC[C@@H]6[C@@H](Cl)[C@@H]65)nc(OC[C@@H]5CCCN5C)nc4c3F)c12 [Example 326, 6-chloro-4-(4-((1R,7R,8R)-8-chloro-5-oxa-2-azabicyclo[5.1.0]octan-2-yl)-8-fluoro-2-(((S)-1-methylpyrrolidin-2-yl)methoxy)pyrido[4,3-d]pyrimidin-7-yl)-5-ethynylnaphthalen-2-amine]

Same assay, conditions: Homo sapiens, NCI-H441, pERK HTRF, NCI-H441 cells (KRAS G12V)

IC50 [nM] | Structure (SMILES)
< 50 | [2H]C1([2H])CCO[C@H]2C[C@H]2N1c1nc(OC([2H])([2H])[C@@]23CCCN2C[C@H](F)C3)nc2c(F)c(-c3cc(N)cc4cc(F)c(F)c(C#C)c34)ncc12 [Example 25, 4-(4-((1S,7R)-2-Oxa-6-azabicyclo[5.1.0]octan-6-yl-5,5-d2)-8-fluoro-2-(((2R,7aS)-2-fluorotetrahydro-1H-pyrrolizin-7a(5H)-yl)methoxy-d2)pyrido[4,3-d]pyrimidin-7-yl)-5-ethynyl-6,7-difluoronaphthalen-2-amine]
500 to 10000 | [2H]C([2H])(Oc1nc(N2CCCO[C@@H]3[C@@H](F)[C@@H]32)c2cnc(-c3cc(N)cc4cc(F)c(F)c(C#C)c34)c(F)c2n1)[C@@]12CCCN1C[C@H](F)C2 [Example 23, 5-Ethynyl-6,7-difluoro-4-(8-fluoro-4-((1S,7R,8S)-8-fluoro-2-oxa-6-azabicyclo[5.1.0]octan-6-yl)-2-(((2R,7aS)-2-fluorotetrahydro-1H-pyrrolizin-7a(5H)-yl)methoxy-d2)pyrido[4,3-d]pyrimidin-7-yl)naphthalen-2-amine]
50 to 500 | C#Cc1c(F)ccc2cc(N)cc(-c3ncc4c(N5CCCCC6C5C6(F)F)nc(OC[C@@]56CCCN5C[C@H](F)C6)nc4c3F)c12 (stereo partly drawn) [Example 57, 4-(4-(8,8-Difluoro-2-azabicyclo[5.1.0]octan-2-yl)-8-fluoro-2-(((2R,7aS)-2-fluorotetrahydro-1H-pyrrolizin-7a(5H)-yl)methoxy)pyrido[4,3-d]pyrimidin-7-yl)-5-ethynyl-6-fluoronaphthalen-2-amine]
